Assays:
Alkaline Phosphatase = assay: Example 5: postbaseline hepatic laboratory parameter values of clinical interest, Alkaline Phosphatase; assay type: in vivo, human; conditions: safety population
From the text: This study consisted of a 4-week screening and baseline period and a 12-week double-blind treatment period, which was followed by a 4-week safety follow-up period. Total study duration is 20-weeks.
To be randomized, eligible patients had to be 18 to 75 years of age (inclusive), have a history of migraine with or without aura for at least 1 year consistent with a diagnosis according to the International Classification of Headache Disorders criteria, 3rd edition, beta version, have experienced 4 to 14 migraine/probable migraine headache days and <15 headache days in the 28-day baseline period. Patients who had clinically significant hematologic, endocrine, cardiovascular, cerebrovascular, pulmonary, renal, hepatic, gastrointestinal, or neurologic disease were excluded from the study.
A total of 834 patients were randomized to double-blind treatment (ITT population), and 825 patients took at least 1 dose of double-blind IP (safety population). […] The primary efficacy variable was the change from baseline in mean monthly migraine/probable migraine headache days across the 12-week treatment period. The secondary efficacy variables were the change from baseline in mean monthly headache days across the 12-week treatment period, proportion of patients with at least a 50% reduction in mean monthly migraine/probable migraine headache days across the 12-week treatment period, and the change from baseline in mean monthly acute medication use days across the 12-week treatment period.

[1] = test system: participants with episodic migraine; assay: Study B: HIT-6 total score and responder rates; assay type: in vivo, human; set-up: key to Change from Baseline in HIT-6 Total Score, LS Mean Δ from baseline: points on HIT-6 total score (range 36–78); negative = improvement; conditions: for HIT-6 total score, LS mean change (95% confidence interval) / proportion of HIT-6 responders (≥5 points from baseline): Study B, 60 mg QD; for Change from Baseline in HIT-6 Total Score, LS Mean Δ from baseline / HIT-6 Total Score Responder Rates, % Responder: atogepant 60 mg; for Change from Baseline in HIT-6 Total Score, LS Mean Δ from baseline: mITT Population; for HIT-6 Total Score Responder Rates, % Responder: responder = ≥5 point improvement from baseline
Method: In embodiments, the present disclosure provides a method for preventing migraine (such as a method for preventing migraine in patients having fewer than fifteen migraine days per month) wherein atogepant is administered in an amount of 10 mg QD, 30 mg QD, or 60 mg QD, wherein administration of atogepant results in a reduction in a 6-item Headache Impact Test (HIT-6) disability score relative to baseline. The Headache Impact Test (HIT-6) is a well-known tool for assessing migraine intensity, and uses six questions to measure the adverse impact of headache on, for example, social functioning, role functioning, vitality, cognitive functioning, and psychological distress. Responses are based on frequency using a 5-point verbal response scale ranging from “never” to “always”. The HIT-6 total score is the sum of the responses, and ranges from 36 to 78. See Yang et al., Validation of the Headache Impact Test (HIT-6™) Across Episodic and Chronic Migraine, Cephalalgia 2011 February; 31 (3): 357-367. In embodiments, treatment with atogepant results in a greater than five (≥5) point decrease in HIT-6 disability score.
The proportion of HIT-6 responders (≥5 points from baseline) were 59.92% and 80.77% of participants in the first (week 4) and last (week 52) timepoints assessed, respectively. A responder on the HIT-6 was defined as a participant with a ≥5 point improvement from baseline.

## C[C@@H]1[C@H](c2c(F)ccc(F)c2F)C[C@H](NC(=O)c2cnc3c(c2)C[C@@]2(C3)C(=O)Nc3ncccc32)C(=O)N1CC(F)(F)F [atogepant]
Alkaline Phosphatase; Atogepant 10 mg QD (N = 93)
  Participants with postbaseline Alkaline Phosphatase (U/L) >=1 * ULN, (%): (5.4) %
  Participants with postbaseline Alkaline Phosphatase (U/L) >=1 * ULN, n/N1: 5/92
  Participants with postbaseline Alkaline Phosphatase (U/L) >=1.5 * ULN, (%): (1.1) %
  Participants with postbaseline Alkaline Phosphatase (U/L) >=1.5 * ULN, n/N1: 1/92
  Participants with postbaseline Alkaline Phosphatase (U/L) >=2 * ULN, (%): (1.1) %
  Participants with postbaseline Alkaline Phosphatase (U/L) >=2 * ULN, n/N1: 1/92
  Participants with postbaseline Alkaline Phosphatase (U/L) >=3 * ULN, n/N1: 0
  Participants with postbaseline Alkaline Phosphatase (U/L) >=5 * ULN, n/N1: 0
  Participants with postbaseline Alkaline Phosphatase (U/L) >=10 * ULN, n/N1: 0
  Participants with postbaseline Alkaline Phosphatase (U/L) >=20 * ULN, n/N1: 0
Alkaline Phosphatase; Atogepant 30 mg BID (N = 86)
  Participants with postbaseline Alkaline Phosphatase (U/L) >=1 * ULN, (%): (2.4) %
  Participants with postbaseline Alkaline Phosphatase (U/L) >=1 * ULN, n/N1: 2/84
  Participants with postbaseline Alkaline Phosphatase (U/L) >=1.5 * ULN, n/N1: 0
  Participants with postbaseline Alkaline Phosphatase (U/L) >=2 * ULN, n/N1: 0
  Participants with postbaseline Alkaline Phosphatase (U/L) >=3 * ULN, n/N1: 0
  Participants with postbaseline Alkaline Phosphatase (U/L) >=5 * ULN, n/N1: 0
  Participants with postbaseline Alkaline Phosphatase (U/L) >=10 * ULN, n/N1: 0
  Participants with postbaseline Alkaline Phosphatase (U/L) >=20 * ULN, n/N1: 0
Alkaline Phosphatase; Atogepant 30 mg QD (N = 183)
  Participants with postbaseline Alkaline Phosphatase (U/L) >=1 * ULN, (%): (10.6) %
  Participants with postbaseline Alkaline Phosphatase (U/L) >=1 * ULN, n/N1: 19/179
  Participants with postbaseline Alkaline Phosphatase (U/L) >=1.5 * ULN, (%): (0.6) %
  Participants with postbaseline Alkaline Phosphatase (U/L) >=1.5 * ULN, n/N1: 1/179
  Participants with postbaseline Alkaline Phosphatase (U/L) >=2 * ULN, n/N1: 0
  Participants with postbaseline Alkaline Phosphatase (U/L) >=3 * ULN, n/N1: 0
  Participants with postbaseline Alkaline Phosphatase (U/L) >=5 * ULN, n/N1: 0
  Participants with postbaseline Alkaline Phosphatase (U/L) >=10 * ULN, n/N1: 0
  Participants with postbaseline Alkaline Phosphatase (U/L) >=20 * ULN, n/N1: 0
Alkaline Phosphatase; Atogepant 60 mg BID (N = 91)
  Participants with postbaseline Alkaline Phosphatase (U/L) >=1 * ULN, (%): (3.4) %
  Participants with postbaseline Alkaline Phosphatase (U/L) >=1 * ULN, n/N1: 3/88
  Participants with postbaseline Alkaline Phosphatase (U/L) >=1.5 * ULN, n/N1: 0
  Participants with postbaseline Alkaline Phosphatase (U/L) >=2 * ULN, n/N1: 0
  Participants with postbaseline Alkaline Phosphatase (U/L) >=3 * ULN, n/N1: 0
  Participants with postbaseline Alkaline Phosphatase (U/L) >=5 * ULN, n/N1: 0
  Participants with postbaseline Alkaline Phosphatase (U/L) >=10 * ULN, n/N1: 0
  Participants with postbaseline Alkaline Phosphatase (U/L) >=20 * ULN, n/N1: 0
Alkaline Phosphatase; Atogepant 60 mg QD (N = 186)
  Participants with postbaseline Alkaline Phosphatase (U/L) >=1 * ULN, (%): (6.6) %
  Participants with postbaseline Alkaline Phosphatase (U/L) >=1 * ULN, n/N1: 12/181
  Participants with postbaseline Alkaline Phosphatase (U/L) >=1.5 * ULN, n/N1: 0
  Participants with postbaseline Alkaline Phosphatase (U/L) >=2 * ULN, n/N1: 0
  Participants with postbaseline Alkaline Phosphatase (U/L) >=3 * ULN, n/N1: 0
  Participants with postbaseline Alkaline Phosphatase (U/L) >=5 * ULN, n/N1: 0
  Participants with postbaseline Alkaline Phosphatase (U/L) >=10 * ULN, n/N1: 0
  Participants with postbaseline Alkaline Phosphatase (U/L) >=20 * ULN, n/N1: 0
[1]; week 4
  HIT-6 total score, LS mean change (95% confidence interval): −7.63
  proportion of HIT-6 responders (≥5 points from baseline): 59.92%
[1]; week 52
  HIT-6 total score, LS mean change (95% confidence interval): −12.10
  proportion of HIT-6 responders (≥5 points from baseline): 80.77%
[1]; Week 4
  Change from Baseline in HIT-6 Total Score, LS Mean Δ from baseline: −7.63
  HIT-6 Total Score Responder Rates, % Responder: 59.92%
[1]; Week 8
  Change from Baseline in HIT-6 Total Score, LS Mean Δ from baseline: −9.14
  HIT-6 Total Score Responder Rates, % Responder: 66.60%
[1]; Week 12
  Change from Baseline in HIT-6 Total Score, LS Mean Δ from baseline: −6.60
  HIT-6 Total Score Responder Rates, % Responder: 69.21%
[1]; Week 16
  Change from Baseline in HIT-6 Total Score, LS Mean Δ from baseline: −10.15
  HIT-6 Total Score Responder Rates, % Responder: 71.65%
[1]; Week 20
  Change from Baseline in HIT-6 Total Score, LS Mean Δ from baseline: −10.56
  HIT-6 Total Score Responder Rates, % Responder: 73.98%
[1]; Week 24
  Change from Baseline in HIT-6 Total Score, LS Mean Δ from baseline: −10.55
  HIT-6 Total Score Responder Rates, % Responder: 74.00%
[1]; Week 28
  Change from Baseline in HIT-6 Total Score, LS Mean Δ from baseline: −10.99
  HIT-6 Total Score Responder Rates, % Responder: 76.56%
[1]; Week 32
  Change from Baseline in HIT-6 Total Score, LS Mean Δ from baseline: −11.15
  HIT-6 Total Score Responder Rates, % Responder: 77.89%
[1]; Week 36
  Change from Baseline in HIT-6 Total Score, LS Mean Δ from baseline: −11.29
  HIT-6 Total Score Responder Rates, % Responder: 75.62%
[1]; Week 40
  Change from Baseline in HIT-6 Total Score, LS Mean Δ from baseline: −11.76
  HIT-6 Total Score Responder Rates, % Responder: 80.71%
[1]; Week 44
  Change from Baseline in HIT-6 Total Score, LS Mean Δ from baseline: −11.46
  HIT-6 Total Score Responder Rates, % Responder: 78.39%
[1]; Week 48
  Change from Baseline in HIT-6 Total Score, LS Mean Δ from baseline: −11.86
  HIT-6 Total Score Responder Rates, % Responder: 80.11%
[1]; Week 52
  Change from Baseline in HIT-6 Total Score, LS Mean Δ from baseline: −12.10
  HIT-6 Total Score Responder Rates, % Responder: 80.77%

Source: patent publication US12383545B1, “Treatment of migraine” (priority 2018, dated 2025)
